What all share (assay): In vitro assay of antibacterial activity (agar dilution MIC)
Holding throughout (format): cell-based

Assay [1] has as its system MYCOBACTERIUM SMEGMATIS ATCC 114. Particulars: BHI agar, 35-37 °C for 20 to 24 hours, unit assumed. As to the method: (§1) Representative compounds of the present invention were assayed in vitro for antibacterial activity as follows: Twelve petri dishes containing successive aqueous dilutions of the test compound mixed with 10 mL of sterilized Brain Heart Infusion (BHI) agar (Difco 0418-01-5) were prepared. Each plate was inoculated with 1:100 (or 1:10 for slow-growing strains, such as Micrococcus and Streptococcus) dilutions of up to 32 different microorganisms, using a Steers replicator block. The inoculated plates were incubated at 35-37 °C for 20 to 24 hours. In addition, a control plate, using BHI agar containing no test compound, was prepared and incubated at the beginning and end of each test.
(§2) An additional plate containing a compound having known susceptibility patterns for the organisms being tested and belonging to the same antibiotic class as the test compound was also prepared and incubated as a further control, as well as to provide test-to-test comparability. Erythromycin A was used for this purpose.
(§3) After incubation, each plate was visually inspected. The minimum inhibitory concentration (MIC) was defined as the lowest concentration of drug yielding no growth, a slight haze, or sparsely isolated colonies on the inoculum spot as compared to the growth control.

Assay [2] relates to STAPHYLOCOCCUS EPIDERMIDIS 3519. Particulars: unit assumed. On the procedure: as §1, §2, §3
Assay [3] relates to STAPHYLOCOCCUS AUREUS CMX 642A. Particulars: BHI agar, 35-37 °C for 20 to 24 hours, unit assumed. As to the method: as §1, §2, §3
The test system of the next assay is M[…] ATCC 4698. Particulars: BHI agar, 35-37 °C for 20 to 24 hours, unit assumed. As to the method:
as §1, §2, §3

In assay [4] the test system is STREPTOCOCCUS PYOGENES EES61. Particulars: BHI agar, 35-37 °C for 20 to 24 hours, unit assumed. On the procedure: as §1, §2, §3
A further assay concerns CANDIDA ALBICANS CCH 442. Particulars: BHI agar, 35-37 °C for 20 to 24 hours, unit assumed. On the procedure: as §1, §2, §3
Assay [5] deals with STAPHYLOCOCCUS AUREUS ATCC 6538P. Particulars: BHI agar, 35-37 °C for 20 to 24 hours, unit assumed. As to the method: as §1, §2, §3
In assay [6] the test system is STREPTOCOCCUS PYOGENES 930. Particulars: BHI agar, 35-37 °C for 20 to 24 hours, unit assumed. As to the method: as §1, §2, §3
Assay [7] concerns STAPHYLOCOCCUS AUREUS A-5278. Particulars: BHI agar, 35-37 °C for 20 to 24 hours, unit assumed. As to the method: as §1, §2, §3
Assay [8] deals with STREPTOCOCCUS BOVIS A-5169. Particulars: BHI agar, 35-37 °C for 20 to 24 hours, unit assumed. As to the method:
as §1, §2, §3

A further assay has as its system EN[…] ATCC 8043. Particulars: BHI agar, 35-37 °C for 20 to 24 hours, unit assumed. On the procedure:
as §1, §2, §3

A further assay relates to M[…] ATCC 9341. Particulars: BHI agar, 35-37 °C for 20 to 24 hours, unit assumed. On the procedure:
as §1, §2, §3

Assay [9] relates to STREPTOCOCCUS PYOGENES PIU 2548. Particulars: BHI agar, 35-37 °C for 20 to 24 hours, unit assumed. On the procedure: as §1, §2, §3
The test system of assay [10] is STAPHYLOCOCCUS AUREUS CMX 553. Particulars: BHI agar, 35-37 °C for 20 to 24 hours, unit assumed. On the procedure: as §1, §2, §3
In another assay the test system is ESCHERICHIA COLI JUHL. Particulars: unit assumed. As to the method: as §1, §2, §3
The next assay concerns ESCHERICHIA COLI SS. Particulars: unit assumed. On the procedure:
as §1, §2, §3

The test system of the next assay is STR[…] 508. Particulars: BHI agar, 35-37 °C for 20 to 24 hours, unit assumed. On the procedure:
as §1, §2, §3

In assay [11] the test system is STAPHYLOCOCCUS AUREUS A5177. Particulars: BHI agar, 35-37 °C for 20 to 24 hours, unit assumed. On the procedure: as §1, §2, §3
The test system of assay [12] is STAPHYLOCOCCUS AUREUS NCTC10649M. Particulars: BHI agar, 35-37 °C for 20 to 24 hours, unit assumed. As to the method: as §1, §2, §3
The subject of assay [13] is STAPHYLOCOCCUS AUREUS 1775. Particulars: BHI agar, 35-37 °C for 20 to 24 hours, unit assumed. On the procedure:
as §1, §2, §3

The next assay relates to N. ASTEROIDES ATCC 9970. Particulars: BHI agar, 35-37 °C for 20 to 24 hours, unit assumed. On the procedure: as §1, §2, §3
For a further assay, the system named is ESCHERICHIA COLI DC-2. Particulars: BHI agar, 35-37 °C for 20 to 24 hours, unit assumed. On the procedure:
as §1, §2, §3

Where [14] appears, read: MYCOBACTERIUM SMEGMATIS ATCC 114.
The mark [15] stands for this setting: STAPHYLOCOCCUS EPIDERMIDIS 3519, BHI agar, 35-37 °C for 20 to 24 hours.
Setting [16] is: STREPTOCOCCUS PYOGENES PIU 2548.
The mark [17] stands for this setting: ESCHERICHIA COLI JUHL, BHI agar, 35-37 °C for 20 to 24 hours.
The mark [18] stands for this setting: ESCHERICHIA COLI SS, BHI agar, 35-37 °C for 20 to 24 hours.
Where [19] appears, read: STREPTOCOCCUS AGALACTIAE CMX 508.

Regarding `CC[C@H]1OC(=O)[C@H](C)[C@@H](O[C@H]2C[C@@](C)(OC)[C@@H](O)[C@H](C)O2)[C@H](C)[C@@H](O[C@@H]2O[C@H](C)C[C@H](N(C)C)[C@H]2O)[C@](C)(O)C[C@@H](C)C(=O)[C@H](C)[C@@H](O)[C@]1(C)O` [Ery A, Erythromycin A, reference compound], the Antibacterial Activity (MIC's) in assay [1] (MYC[…] ATCC 114) was 1.56 µg/mL; in assay [2] it was 0.2 µg/mL; in [3], 0.39 µg/mL; with M[…] ATCC 4698 (M[…] ATCC 4698), 0.39 µg/mL; in assay [4] (STR[…] EES61) it was 0.02 µg/mL; in the assay with CANDIDA ALBICANS CCH 442, above 100 µg/mL. Also, the Antibacterial Activity (MIC's) was 0.2 µg/mL in assay [5]; above 100 µg/mL in assay [6] (STR[…] 930); above 100 µg/mL in assay [7]; 0.01 µg/mL in [8] (STR[…] A-5169); 0.1 µg/mL with EN[…] ATCC 8043 (EN[…] ATCC 8043); 0.02 µg/mL with M[…] ATCC 9341 (M[…] ATCC 9341). For the same molecule, the Antibacterial Activity (MIC's) in assay [9] (STR[…] PIU 2548) was 3.1 µg/mL; in assay [10], 0.39 µg/mL; with ESCHERICHIA COLI JUHL, 50 µg/mL; with ESCHERICHIA COLI SS it was 0.39 µg/mL; with STR[…] 508 (STR[…] 508), 0.02 µg/mL; in assay [11] it was 3.1 µg/mL. Besides, the Antibacterial Activity (MIC's) in [12] was 0.39 µg/mL; in assay [13], above 100 µg/mL; with N. ASTEROIDES ATCC 9970 it was 0.1 µg/mL; with ESCHERICHIA COLI DC-2, 100 µg/mL.
On to `CC[C@H]1OC(=O)[C@H](C)C(=O)[C@H](C)[C@@H](O[C@@H]2O[C@H](C)C[C@H](N(C)C)[C@H]2O)[C@](C)(OC)C[C@@H](C)C2=Nc3cc(OC)ccc3N3C(=O)O[C@@]1(C)[C@H]3[C@H]2C` [Ex 5, Compound of Formula (I): R^1 is methoxy; R^2 is H, R^3 is absent, the double bond is present, A, B, and E are H, D is methoxy, and Y and Z taken together with the atom to which they are attached form an oxo group], for which the Antibacterial Activity (MIC's) in [1] (setting [14]) is 1.56 µg/mL; in [2] (setting [15]), 0.78 µg/mL; in assay [3] it was 0.78 µg/mL; in the assay on M[…] ATCC 4698 (MICROCOCCUS LUTEUS ATCC 4698) it was 0.78 µg/mL; in assay [4] (STREPTOCOCCUS PYOGENES EES61), 0.02 µg/mL; with CANDIDA ALBICANS CCH 442, above 100 µg/mL. The Antibacterial Activity (MIC's) in assay [5] was 0.78 µg/mL; in assay [6] (STREPTOCOCCUS PYOGENES 930), above 100 µg/mL; in assay [7], above 100 µg/mL; in assay [8] (STREPTOCOCCUS BOVIS A-5169), 0.02 µg/mL; in the assay on EN[…] ATCC 8043 (ENTEROCOCCUS FAECIUM ATCC 8043) it was 0.1 µg/mL; in the assay with M[…] ATCC 9341 (MICROCOCCUS LUTEUS ATCC 9341) it was 0.1 µg/mL. In addition, the Antibacterial Activity (MIC's) in assay [9] (setting [16]) is 0.39 µg/mL; in [10], 0.78 µg/mL; in the assay on ESCHERICHIA COLI JUHL (setting [17]), above 100 µg/mL; in the assay with ESCHERICHIA COLI SS (setting [18]), 50 µg/mL; in the assay on STR[…] 508 (setting [19]), 0.02 µg/mL; in assay [11], 0.78 µg/mL. The Antibacterial Activity (MIC's) in [12] is 0.78 µg/mL; in assay [13] it was above 100 µg/mL; in the assay on N. ASTEROIDES ATCC 9970 it was 0.2 µg/mL; in the assay with ESCHERICHIA COLI DC-2 it was above 100 µg/mL.
Regarding `CC[C@H]1OC(=O)[C@H](C)C(=O)[C@H](C)[C@@H](O[C@@H]2O[C@H](C)C[C@H](N(C)C)[C@H]2O)[C@](C)(OC)C[C@@H](C)C2=Nc3ccccc3N3C(=O)O[C@@]1(C)[C@H]3[C@H]2C` [Ex 2, Compound of Formula (I): R^1 is methoxy: R^2 is H, R^3 is absent, the double bond is present, A, B, D and E are H, and Y and Z taken together with the atom to which they are attached form an oxo group], the Antibacterial Activity (MIC's) in assay [1] (setting [14]) is 3.1 µg/mL; in assay [2] (setting [15]) it was 0.39 µg/mL; in [3] it was 0.39 µg/mL; with M[…] ATCC 4698 (MICROCOCCUS LUTEUS ATCC 4698), 0.78 µg/mL; in assay [4] (STREPTOCOCCUS PYOGENES EES61), 0.1 µg/mL; in the assay on CANDIDA ALBICANS CCH 442, above 100 µg/mL. Also, the Antibacterial Activity (MIC's) is 0.39 µg/mL in [5]; above 100 µg/mL in assay [6] (STREPTOCOCCUS PYOGENES 930); above 100 µg/mL in assay [7]; 0.1 µg/mL in assay [8] (STREPTOCOCCUS BOVIS A-5169); 0.2 µg/mL in the assay on EN[…] ATCC 8043 (ENTEROCOCCUS FAECIUM ATCC 8043); 0.1 µg/mL in the assay on M[…] ATCC 9341 (MICROCOCCUS LUTEUS ATCC 9341). In addition, the Antibacterial Activity (MIC's) was 0.39 µg/mL in [9] (setting [16]); 0.39 µg/mL in [10]; above 100 µg/mL with ESCHERICHIA COLI JUHL (setting [17]); 1.56 µg/mL in the assay with ESCHERICHIA COLI SS (setting [18]); 0.1 µg/mL with STR[…] 508 (setting [19]); 0.39 µg/mL in assay [11]. For the same molecule, the Antibacterial Activity (MIC's) in [12] is 0.39 µg/mL; in assay [13] it was above 100 µg/mL; in the assay on N. ASTEROIDES ATCC 9970, 0.39 µg/mL; with ESCHERICHIA COLI DC-2, above 100 µg/mL.
